# Reference: PubChem BioAssay AID328 (DTP/NCI, 2004)
# Several values for one entry are separate records, joined by “and”; a condition that tells them apart may be missing. Equal values may be shown once. Toxic doses and inconclusive results are not listed.
# Tested on: BDF1 mice, P388 leukemia ip, median survival T/C
# Assay: NCI In Vivo Anticancer Drug Screen. Data for tumor model P388 Leukemia (intraperitoneal) in B6D2F1 (BDF1) mice
# Conditions: endpoint: median survival time, higher = longer survival
# Procedure, shortened: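 T/C = treated-group survival ÷ vehicle-control survival; tumour transplanted into mice before dosing.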
# [1] = dose: 50.0 mg/kg/injection, schedule: Q01DX009 (ip), vehicle: Klucel (hydroxypropylcellulose) (HPC)
# [2] = dose: 100.0 mg/kg/injection, schedule: Q01DX009 (ip), vehicle: Klucel (hydroxypropylcellulose) (HPC)
# [3] = dose: 200.0 mg/kg/injection, schedule: Q01DX009 (ip), vehicle: Klucel (hydroxypropylcellulose) (HPC)
# [4] = dose: 200.0 mg/kg/injection, schedule: Q04DX003 (ip), vehicle: Klucel (hydroxypropylcellulose) (HPC)
# [5] = dose: 100.0 mg/kg/injection, schedule: Q04DX003 (ip), vehicle: saline with Tween-80
# [6] = dose: 400.0 mg/kg/injection, schedule: Q04DX003 (ip), vehicle: saline with Tween-80
# [7] = dose: 50.0 mg/kg/injection, schedule: Q01DX009 (ip), vehicle: saline
# [8] = dose: 100.0 mg/kg/injection, schedule: Q01DX009 (ip), vehicle: saline
# [9] = dose: 200.0 mg/kg/injection, schedule: Q01DX009 (ip), vehicle: saline
# [10] = dose: 25.0 mg/kg/injection, schedule: Q01DX009 (ip), vehicle: saline with Tween-80
# [11] = dose: 50.0 mg/kg/injection, schedule: Q01DX009 (ip), vehicle: saline with Tween-80
# [12] = dose: 100.0 mg/kg/injection, schedule: Q01DX009 (ip), vehicle: saline with Tween-80
# [13] = dose: 200.0 mg/kg/injection, schedule: Q01DX009 (ip), vehicle: saline with Tween-80
# [14] = dose: 200.0 mg/kg/injection, schedule: Q04DX003 (ip), vehicle: saline with Tween-80
structure (smiles),measurement,setting,value
COC(=O)C12OCC34C(CC5C(C)=C(O)C(=O)CC5(C)C3C(O)C1O)OC(=O)C(O)C24 (stereo not drawn),T/C,"dose: 5.0 micrograms/kg/injection, schedule: Q01DX009 (ip), vehicle: saline",100 % of control
same,T/C,"dose: 10.0 micrograms/kg/injection, schedule: Q01DX009 (ip), vehicle: saline",109 % of control
same,T/C,"dose: 20.0 micrograms/kg/injection, schedule: Q01DX009 (ip), vehicle: saline",118 % of control
CCN(CC)C(=O)c1ccc([N+](=O)[O-])cc1,T/C,[1],103 % of control
same,T/C,"dose: 50.0 mg/kg/injection, schedule: Q04DX003 (ip), vehicle: Klucel (hydroxypropylcellulose) (HPC)",95 % of control
same,T/C,[2],100 % of control
same,T/C,[3],89 % of control
same,T/C,[4],104 % of control
O=[N+]([O-])/C=C/c1ccc2ccccc2c1,T/C,"dose: 88.0 mg/kg/injection, schedule: Q04DX003 (ip), vehicle: saline sonified",116 % of control
same,T/C,"dose: 100.0 mg/kg/injection, schedule: Q01DX009 (ip), vehicle: saline sonified",100 % of control
same,T/C,[5],120 % of control
same,T/C,"dose: 132.0 mg/kg/injection, schedule: Q04DX003 (ip), vehicle: saline sonified",116 % of control
same,T/C,"dose: 200.0 mg/kg/injection, schedule: Q04DX003 (ip), vehicle: saline sonified",111 % of control
same,T/C,"dose: 300.0 mg/kg/injection, schedule: Q04DX003 (ip), vehicle: saline sonified",116 % of control
same,T/C,[6],90 % of control
CCC(C)n1ncc2c(N(C)C)ncnc21 (stereo not drawn),T/C,"dose: 12.5 mg/kg/injection, schedule: Q01DX009 (ip), vehicle: Klucel (hydroxypropylcellulose) (HPC)",100 % of control
same,T/C,[1],92 % of control and 95 % of control
same,T/C,"dose: 100.0 mg/kg/injection, schedule: Q04DX003 (ip), vehicle: Klucel (hydroxypropylcellulose) (HPC)",95 % of control
same,T/C,[4],120 % of control
C1CC2CCCC3CC(B4OCCO4)CC(C1)C23 (stereo not drawn) (tested in a mixture with another compound),T/C,"dose: 100.0 mg/kg/injection, schedule: Q04DX003 (ip), vehicle: other",120 % of control
same,T/C,"dose: 200.0 mg/kg/injection, schedule: Q04DX003 (ip), vehicle: other",100 % of control
same,T/C,"dose: 400.0 mg/kg/injection, schedule: Q04DX003 (ip), vehicle: other",100 % of control
O=Cc1c[nH]c2nccnc12,T/C,"dose: 25.0 mg/kg/injection, schedule: Q01DX009 (ip), vehicle: saline",98 % of control
same,T/C,[7],101 % of control
same,T/C,[8],99 % of control and 115 % of control
same,T/C,"dose: 100.0 mg/kg/injection, schedule: Q04DX003 (ip), vehicle: saline",100 % of control
same,T/C,[9],107 % of control and 108 % of control
same,T/C,"dose: 200.0 mg/kg/injection, schedule: Q04DX003 (ip), vehicle: saline",101 % of control
same,T/C,"dose: 400.0 mg/kg/injection, schedule: Q04DX003 (ip), vehicle: saline",103 % of control
O=[N+]([O-])c1ccc(N/N=C(\c2ccccc2)c2ccsc2)c([N+](=O)[O-])c1,T/C,"dose: 6.25 mg/kg/injection, schedule: Q01DX009 (ip), vehicle: saline with Tween-80",103 % of control
same,T/C,"dose: 12.5 mg/kg/injection, schedule: Q01DX009 (ip), vehicle: saline with Tween-80",100 % of control
same,T/C,[10],96 % of control
same,T/C,[11],92 % of control
CN(C)C(=S)SCC(=O)NC(CO)C(=O)O (stereo not drawn),T/C,[11],98 % of control
same,T/C,[12],98 % of control
same,T/C,[13],89 % of control
O=[N+]([O-])c1ccc(S(=O)(=O)Nc2ccccc2-c2ccccc2)cc1,T/C,[5],96 % of control
same,T/C,[14],96 % of control
same,T/C,[6],100 % of control
COc1ncnc2nc[nH]c12,T/C,[12],95 % of control
same,T/C,[5],100 % of control
same,T/C,[13],91 % of control
same,T/C,[14],109 % of control
same,T/C,"dose: 400.0 mg/kg/injection, schedule: Q01DX009 (ip), vehicle: saline with Tween-80",86 % of control
same,T/C,[6],95 % of control
COC(=O)c1ccc(=O)c2nc3/c(=C/O)c(O)cc(=O)c3[nH]c12,T/C,"dose: 12.5 micrograms/kg/injection, schedule: Q01DX009 (ip), vehicle: Klucel (hydroxypropylcellulose) (HPC)",101 % of control
same,T/C,"dose: 25.0 micrograms/kg/injection, schedule: Q01DX009 (ip), vehicle: Klucel (hydroxypropylcellulose) (HPC)",97 % of control
same,T/C,"dose: 50.0 micrograms/kg/injection, schedule: Q01DX009 (ip), vehicle: Klucel (hydroxypropylcellulose) (HPC)",97 % of control
same,T/C,"dose: 99.0 micrograms/kg/injection, schedule: Q01DX009 (ip), vehicle: saline",100 % of control
same,T/C,"dose: 150.0 micrograms/kg/injection, schedule: Q01DX009 (ip), vehicle: saline",109 % of control
same,T/C,"dose: 225.0 micrograms/kg/injection, schedule: Q01DX009 (ip), vehicle: saline",113 % of control
O=C(O)c1ccccc1Oc1ccccc1C(=O)O,T/C,[8],100 % of control
same,T/C,[9],90 % of control
same,T/C,"dose: 400.0 mg/kg/injection, schedule: Q01DX009 (ip), vehicle: saline",104 % of control
O=C(S)c1ccccc1Br,T/C,"dose: 50.0 mg/kg/injection, schedule: Q01DX005 (ip), vehicle: saline with Tween-80",99 % of control
same,T/C,"dose: 100.0 mg/kg/injection, schedule: Q01DX005 (ip), vehicle: saline with Tween-80",92 % of control
same,T/C,"dose: 200.0 mg/kg/injection, schedule: Q01DX005 (ip), vehicle: saline with Tween-80",100 % of control
O=S1(=O)CCN(C2CC2)CC1,T/C,[1],104 % of control
COc1ccc(CCC(C(=O)O)c2ccc(OC)c(OC)c2)cc1OC (stereo not drawn),T/C,"dose: 45.0 mg/kg/injection, schedule: Q01DX009 (ip), vehicle: Klucel (hydroxypropylcellulose) (HPC)",95 % of control
same,T/C,"dose: 65.0 mg/kg/injection, schedule: Q01DX009 (ip), vehicle: Klucel (hydroxypropylcellulose) (HPC)",90 % of control
same,T/C,[2],95 % of control
same,T/C,"dose: 150.0 mg/kg/injection, schedule: Q01DX009 (ip), vehicle: Klucel (hydroxypropylcellulose) (HPC)",90 % of control
Nc1ccc(Cl)c(Cl)c1,T/C,[11],98 % of control
same,T/C,[7],106 % of control
same,T/C,[12],104 % of control
same,T/C,[8],118 % of control
same,T/C,[13],104 % of control
COC(=O)C(=O)[C@@H](O)[C@H](O)[C@@H](O)CO,T/C,[2],100 % of control
same,T/C,[3],113 % of control
same,T/C,"dose: 400.0 mg/kg/injection, schedule: Q01DX009 (ip), vehicle: Klucel (hydroxypropylcellulose) (HPC)",109 % of control
Nc1ncc(CNc2ccc(C(=O)NC(CCC(=O)O)C(=O)O)cc2)c(N)n1 (stereo not drawn),T/C,[1],89 % of control and 115 % of control
same,T/C,[3],150 % of control
COC(=O)C1C(O)C(C)C(O)C(C)C=C(C)C2=C3C(=C(C)C(=O)c4c(O)c(c(C)c(OC(C)=O)c43)NC(=O)C(C)=C/C=C\C(C)C(O)C(C)C1O)OCO2 (stereo not drawn),T/C,"dose: 25.0 mg/kg/injection, schedule: Q01DX009 (ip), vehicle: Klucel (hydroxypropylcellulose) (HPC)",101 % of control
same,T/C,[10],90 % of control
same,T/C,[1],110 % of control and 97 % of control
same,T/C,[11],109 % of control
same,T/C,[2],101 % of control and 113 % of control
same,T/C,[12],90 % of control
